Data reported in patent US20070021351A1, “Liver/plasma concentration ratio for dosing hepatitis C virus protease inhibitor” (Schering Corporation, priority 2005, published 2007).

Experiments:
[1] = Example 1: Phase 1 rising-single-dose pharmacokinetic study in healthy adult subjects; assay type: in vivo, human; conditions: for DN AUC(I): dose-normalized (to 50 mg); for Tmax: median
Protocol: A Phase 1, randomized, third-party-blind (within dose level), placebo-controlled, rising-single-dose study of compounds of Formulae I-XXVI was conducted in healthy adult subjects.
Nine subjects in each group received either compound of Formula Ia (n=6) or placebo (n=3). Those subjects randomized to active compound received one of the following doses of compound of Formula Ia: 50, 100, 200, 400, 600, or 800 mg.
On Day 1, at least 10 hours prior to compound administration, an overnight fast was maintained until 4 hours following treatment administration, after which lunch was served. During the fasting period, no food or fluid (except noncarbonated water) was permitted; furthermore, drinking water was prohibited from 2 hours predose to 2 hours postdose, with the exception of the approximately 240 mL administered with the treatments.
Blood samples (7 mL each) for the determination of compound of Formula Ia concentrations were collected immediately prior to dosing (0 hour), and at 0.25, 0.5, 0.75, 1, 1.5, 2, 3, 4, 5, 6, 8, 10, 12, 18, 24, 36, 48, 72, and 144 hours postdose. The blood samples were collected into tubes containing EDTA. The samples were separated by centrifugation at 4° C. for 15 minutes at 1500 g to obtain the plasma, and the plasma samples frozen at −20° C. until assayed.
Plasma concentrations of compound of Formula Ia were determined using a validated liquid chromatography tandem mass spectrometry (LC-MS/MS) method. The assay lower limit of quantitation (LLOQ) was 0.50 ng/mL, and the method was validated over the concentration range of 0.50 to 1000 ng/mL.
The mean and percent coefficients of variation (% CV) were calculated for the plasma concentrations of compound of Formula Ia at each time point. Concentration values less than the assay LLOQ were reported as and set to zero in the calculations and tables. The plasma concentration-time data for compound of Formula Ia were subjected to pharmacokinetic analysis by noncompartmental methods using WinNonlin software. Nominal sampling times were used for pharmacokinetic analysis.
For each subject, the following compound of Formula Ia pharmacokinetic parameters were determined: • Cmax Maximum observed plasma concentration • Tmax Time of maximum observed plasma concentration • tf Time of final quantifiable sample • AUC(tf) Area under the plasma concentration-time curve from time 0 to tf • AUC(I) Area under the plasma concentration-time curve from time 0 to infinity [AUC(I)=AUC(tf)+C(tf)estimated/k, where k and C(tf)estimated are terminal elimination rate constant and estimated concentration at final quantifiable sample, respectively] • t½ Terminal-phase half-life (t½=In2/k) • CL/F Apparent total body clearance (CL/F=Dose/AUC[I]) • Vd/F Apparent volume of distribution (Vd/F=CL/F*(t1/2/0.693))
Dose-adjusted (to 50 mg) Cmax, AUC(I), and AUC(tf) values were also calculated. Cmax, Tmax, and tf were the observed values. The terminal phase rate constant (k) was calculated as the negative of the slope of the log-linear terminal portion of the plasma concentration-time curve using linear regression (at least three time points). The number of points needed to determine the terminal phase rate constant was selected by WinNonlin software.
Summary statistics, including means, standard deviations, and coefficients of variation (CV) expressed as a percent, were computed for the single-dose plasma compound of Formula Ia concentration data at each sampling time point and for the derived pharmacokinetic parameters for each dose level using a standard program based on SAS/STAT (Release 6.12; SAS Institute Inc., North Carolina).
The log-transformed dose-adjusted (to 50 mg) Cmax and AUC values of compound of Formula Ia were statistically analyzed using an analysis of variance (ANOVA) model. The effect due to treatment (dose) was extracted. Ninety-five percent confidence intervals (CIs) for the means at each dose level, based on the nontransformed data, were provided. […]

[2] = Pharmacokinetic parameter values on administration to a subject (summary); assay type: in vivo
Protocol: When the compounds are administered in fed subjects the bioavailability of the compound is increased about 100% and the mean Tmax of the compound of Formula Ia is increased about 60%.

[3] = test system: HCV polyprotein processing; assay: Kinetic studies following polyprotein processing intermediates; assay type: cell-based
[4] = test system: HCV replicon (bicistronic subgenomic replicon, genotype 1b); assay: HCV replicon system, 72 hour assay in HuH-7 cells; assay type: cell-based
Text: Changes in replicon RNA level are compared to an internal control, such as cellular glyceraldehydes-3-phosphate dehydrogenas (GAPDH) messenger RNA levels, in a single-tube multiplex reaction. […] Therefore, it is contemplated that compound of Formula Ia administration to a subject in need thereof according to the present invention results in about a 0.5- to about 4.0-log decrease in viral load RNA levels, preferably about a 1.0- to about 3.0-log decrease in viral load RNA.
Replicon systems are well-established surrogates for viral replication as there is no HCV viral culture system. The HCV replicon is a non-infectious genotype 1b viral genome in which the sequences encoding the structural proteins at the 5′ end of the RNA have been replaced by a selectable marker, neoR.
NS3-mediated cleavage of the HCV polyprotein releases functional viral proteins essential for viral propagation. Therefore, blockage of NS3 protease activity by compound of Formula Ia is expected to inhibit viral replication in infected host cells.

[5] = single oral 600 mg, fasted healthy adults, mean, n=6
[6] = human, plasma, oral, summary range, dose not stated

Q: With `CC(C)(C)NC(=O)N[C@H](C(=O)N1C[C@H]2[C@@H]([C@H]1C(=O)NC(CC1CCC1)C(=O)C(N)=O)C2(C)C)C(C)(C)C` (mixture of isomers) [Formula Ia, (1R,5S)-N-[3-Amino-1-(Cyclobutylmethyl)-2,3-Dioxopropyl]-3-[2(S)-[[[(1,1-Dimethylethyl)Amino]Carbonyl]Amino]-3,3-Dimethyl-1-Oxobutyl]-6,6-Dimethyl-3-Azabicyclo[3.1.0]Hexan-2(S)-Carboxamide] as the compound, how does the “DN AUC(I)” value ([1]; single oral 50 mg, mean, n=6) read?
A: 181 ng·h/mL

Q: What about the “DN AUC(I)” value ([1]; single oral 100 mg, mean, n=6) of the same compound?
A: 172 ng·h/mL

Q: What about the “DN AUC(I)” value ([1]; single oral 200 mg, mean, n=6) of the same compound?
A: 212 ng·h/mL

Q: What about the “DN AUC(I)” value ([1]; single oral 400 mg, mean, n=6) of the same compound?
A: 195 ng·h/mL

Q: What about the “DN AUC(I)” value ([1]; single oral 600 mg, mean, n=6) of the same compound?
A: 180 ng·h/mL

Q: And the “DN AUC(I)” value ([1]; single oral 800 mg, mean, n=6)?
A: 145 ng·h/mL

Q: And the “AUC(I)” value ([1]; single oral 50 mg, fasted healthy adults, mean, n=6)?
A: 181 ng·h/mL

Q: And the Tmax ([1]; single oral 50 mg, fasted healthy adults, n=6)?
A: 1.50 h

Q: What about the Cmax ([1]; single oral 400 mg, fasted healthy adults, mean, n=6) of the same compound?
A: 445 ng/mL

Q: What about the Tmax ([1]; single oral 400 mg, fasted healthy adults, n=6) of the same compound?
A: 1.75 h

Q: And the “AUC(I)” value [1, 5]?
A: 2158 ng·h/mL

Q: What about the t½ [1, 5] of the same compound?
A: 10.2 h

Q: What about the Tmax ([1]; single oral 600 mg, fasted healthy adults, n=6) of the same compound?
A: 2.25 h

Q: What about the “AUC(I)” value ([1]; single oral 800 mg, fasted healthy adults, mean, n=6) of the same compound?
A: 2320 ng·h/mL

Q: What about the “dose dependence of Cmax and AUC” value ([1]; single oral doses 50-800 mg) of the same compound?
A: increased in a dose-related manner up to the 600 mg dose

Q: And the increase of bioavailability ([2]; fed subjects)?
A: about 100%

Q: And the “increase of mean Tmax” value ([2]; fed subjects)?
A: about 60%

Q: What about the Cmax [2, 6] of the same compound?
A: 50 to 800 ng/mL

Q: And the Tmax [2, 6]?
A: 1 to 5 h

Q: And the Vd/F [2, 6]?
A: 1500 to 6000 L

Q: What about the half-life [2, 6] of the same compound?
A: 2 to 15 h

Q: What about the AUC(0-t) ([2]; human, plasma, oral, summary range, dose not stated, read-out: AUC(0-8 hr)) of the same compound?
A: 500 to 3000 ng·h/mL

Q: And the “time until effects become evident” value [3]?
A: one

Q: What about the IC50 ([4]; Hepatitis C virus, Huh-7, 72 h, read-out: IC50 for suppression of the HCV replicon) of the same compound?
A: ≤ 200 nM

Q: What about the IC90 ([4]; Hepatitis C virus, Huh-7, 72 h, read-out: IC90 for suppression of the HCV replicon) of the same compound?
A: ≤ 400 nM

Q: What about the “replicon RNA decrease compared with 6×IC90” value ([4]; exposure to 12×IC90 (5 μM)) of the same compound?
A: comparable results
